Assay results taken from patent EP4772186A1, “USE AND COMPOSITION OF POSTBIOTIC OF LACTOBACILLUS PARACASEI ET-22” (Inner Mongolia Yili Industrial Group Co., Ltd., priority 2023, dated 2025).

System: VSC concentration
Assay: in vitro Halimeter determination of VSC concentration in saliva fermentation
Format: cell-based, halitosis subjects (saliva)
Conditions: compared with CK group, anaerobic cultivation 10 hours
Protocol: Fresh saliva was collected from 10 halitosis subjects (Halimeter index >120). Subjects were required not to consume any food or drink for 2 hours before donating saliva. Saliva was directly spat into a saliva collection tube, 5 ml per person, and mixed. The mixture was centrifuged at 4500 rpm for 10 minutes, and the supernatant was collected, aliquoted, and stored at -80°C for subsequent experimental studies.
(§1) Lysate observation group: In a 10 ml sample vial, 100 µl of saliva was added first, followed by the separate addition of ET-22 viable bacteria (1.0×10^9 CFU/ml), ET-22 heat-inactivated bacterial cells (obtained by inactivating viable bacteria at 1.0×10^9 CFU/ml), and lysate (obtained by inactivating and then filtering viable bacteria at 1.0×10^9 CFU/ml), each at 100µl. Then, 1.8 ml of SHI medium was added. After filling with nitrogen, anaerobic cultivation was performed for 10 hours. Then, the obtained culture was placed in a 60°C water bath for 30-min incubation. VSC concentration was measured using the in vitro Halimeter method.
(§2) Group of two nucleotides: In a 10 ml sample vial, 100 µl of saliva was added first, followed by the separate addition of ET-22 viable bacteria (1.0×10^9 CFU/ml), ET-22 heat-inactivated bacterial cells (obtained by inactivating viable bacteria at 1.0×10^9 CFU/ml), NAD, and FAD (500 µg/ml, 100 µg/ml, 10 µg/ml), each at 100µl. Then, 1.8 ml of SHI medium was added. After filling with nitrogen, anaerobic cultivation was performed for 10 hours. Then, the obtained culture was placed in a 60°C water bath for 30-min incubation. VSC concentration was measured using the in vitro Halimeter method.
as §2, with “five organic acids:” for “two nucleotides:”, “heat-inactivating” for “inactivating”, “CFU/ml),” for “CFU/ml), NAD,”, “five organic acid components” for “FAD”
as §2, with “Observation group” for “Group”, “four polypeptides:” for “two nucleotides:”, “heat-inactivating” for “inactivating”, “CFU/ml),” for “CFU/ml), NAD,”, “components of four polypeptides” for “FAD”
as §1, with “Peptidoglycan” for “Lysate observation”, “peptidoglycan (peptidoglycan extracted from” for “lysate (obtained by inactivating and then filtering”, “CFU/ml).” for “CFU/ml), each at 100µl.”, “method. […]” for “method.”

Measured: VSC concentration

Cc1cc2nc3c(=O)[nH]c(=O)nc-3n(C[C@H](O)[C@H](O)[C@H](O)COP(=O)(O)OP(=O)(O)OC[C@H]3O[C@@H](n4cnc5c(N)ncnc54)[C@H](O)[C@@H]3O)c2cc1C [FAD, Flavin adenine dinucleotide (FAD)]
no significant change: high concentration (500 µg/ml) | low concentration (10 µg/ml) | medium concentration (100 µg/ml)
